Patent US20090047246A1, “NOVEL INHIBITORS OF HEPATITIS C VIRUS REPLICATION” (InterMune, Inc., priority 2007, published 2009)

biological target: T1, HCV NS3 helicase (Hepatitis C virus genotype 1b, UniProt P26663); assay: HCV Helicase Prompt FRET Assay (Example A); format: biochemical; details: HCV NS3 helicase; tables do not say whether Example A or Example B assay; read-out: IC50 Activity
T1 construct: full-length NS3 (1-631), purified at Array BioPharma
Method in brief: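 Full-length NS3 (1-631), 5 or 6 nM, preincubated 5 min with compound, then unwinds 50 nM FAM/BHQ-1 duplex substrate with 250 nM capture strand and 300 μM ATP in 25 mM MOPS pH 7.0, 1.5 mM MgCl2, 0.005% Triton X-100, 2% DMSO. Fluorescence (485/535 nm) followed ~30 min at room temperature; IC50 from initial rates by 4- or 5-parameter fit.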

T1 sequence (P26663 1027-1657): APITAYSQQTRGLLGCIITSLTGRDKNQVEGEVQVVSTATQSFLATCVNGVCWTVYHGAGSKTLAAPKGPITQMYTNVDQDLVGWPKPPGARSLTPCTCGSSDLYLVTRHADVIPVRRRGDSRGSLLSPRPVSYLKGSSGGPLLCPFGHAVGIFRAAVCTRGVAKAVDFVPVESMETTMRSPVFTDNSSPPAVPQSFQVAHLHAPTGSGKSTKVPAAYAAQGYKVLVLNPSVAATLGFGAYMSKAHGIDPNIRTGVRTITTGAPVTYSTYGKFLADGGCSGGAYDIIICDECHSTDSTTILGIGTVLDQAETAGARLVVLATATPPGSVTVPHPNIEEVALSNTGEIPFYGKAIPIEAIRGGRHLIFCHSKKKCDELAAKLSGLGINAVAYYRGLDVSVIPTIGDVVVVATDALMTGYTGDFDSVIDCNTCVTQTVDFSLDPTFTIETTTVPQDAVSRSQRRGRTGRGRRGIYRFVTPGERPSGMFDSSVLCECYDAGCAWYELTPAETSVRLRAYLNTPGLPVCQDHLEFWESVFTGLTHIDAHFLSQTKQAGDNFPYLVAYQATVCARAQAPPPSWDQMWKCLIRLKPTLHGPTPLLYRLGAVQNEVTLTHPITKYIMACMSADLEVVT

IC50 [µM] | SMILES
< 10 | O=C(O)Cc1cn(-c2ccc(N(Cc3ccccc3)Cc3ccccc3)cc2)c2ccccc12 [Example 169]
< 10 | O=C(O)Cc1c(C(=O)c2cccc(-c3ccc(Cl)cc3Cl)c2)[nH]c2ccccc12 [Example 239]
< 10 | C#Cc1ccc2c(CC(=O)O)cn(Cc3csc4ccc(Cl)cc34)c2c1 [Example 364]
10 to 50 | CC(C)(c1nnn[nH]1)c1cn(Cc2csc3ccc(Cl)cc23)c2ccccc12 [Example 216]
10 to 50 | COc1ccc2c(c1)c(CC(=O)O)cn2Cc1cccc(OCc2ccccc2)c1 [Example 107]
< 10 | O=C(O)Cc1cn(Cc2cccc(-c3cn[nH]c3)c2)c2ccc(OCc3ccccc3)cc12 [Example 131]
< 10 | CC(C)c1ccc(Cn2c(C(=O)Nc3ccc(S(C)(=O)=O)cc3)c(CC(=O)O)c3ccccc32)cc1 [Example 461]
10 to 50 | N#CCc1cn(Cc2csc3ccc(Cl)cc23)c2ccc(CNC(=O)c3ccccc3)cc12 [Example 211]
10 to 50 | COc1ccc(-c2cccc(C(=O)c3[nH]c4ccccc4c3CC(=O)O)c2)cc1 [Example 236]
10 to 50 | CCOC(=O)Cc1cn(Cc2ccc(Oc3cccc(OC)c3)cc2)c2cc(-c3cccc(OC(C)=O)c3)ccc12 [Example 602]
< 10 | CC(C)c1ccc(Cn2c(C(=O)NCc3nc4ccccc4[nH]3)c(CC(=O)O)c3cc(Br)ccc32)cc1 [Example 448]
< 10 | O=C(O)Cc1cn(Cc2cccc(I)c2)c2ccc(OCc3ccccc3)cc12 [Example 123]
< 10 | Cc1cc([N+](=O)[O-])ccc1-n1c(Cc2csc3ccc(Cl)cc23)c(CC(=O)O)c2ccc(OCc3ccccc3)cc21 [Example 371]
< 10 | CN(c1cccc(Cn2cc(CC(=O)O)c3ccccc32)c1)c1cccc(C(F)(F)F)c1 [Example 530]
10 to 50 | Cc1cc([N+](=O)[O-])ccc1N1CC(CC(=O)O)c2cc(Br)ccc21 (stereo not shown) [Example 395]
< 10 | CC(C)Oc1ccc2scc(Cn3cc(CC(=O)O)c4cc(Br)ccc43)c2c1 [Example 140]
< 10 | O=C(O)Cc1c(C(=O)Cc2ccccc2Br)n(Cc2ccccc2)c2ccccc12 [Example 260]
< 10 | O=C(O)Cc1cn(Cc2cccc(Oc3cccc(F)c3)c2)c2ccccc12 [Example 473]
> 50 | Cc1cc([N+](=O)[O-])ccc1-n1cc(CC(=O)O)c2cc3c(cc21)OCO3 [Example 344]
> 50 | COC(=O)C=Cc1cn(-c2ccc([N+](=O)[O-])cc2C)c2cnc(OCc3ccccc3)cc12 [Example 329]
10 to 50 | Cc1cc([N+](=O)[O-])ccc1-n1cc(C(Cc2ccc(C(C)C)cc2)C(=O)O)c2cc(Br)ccc21 (stereo not shown) [Example 408]
10 to 50 | CC(C)c1ccc(Cn2c(C(=O)NC3CC3)c(CC(=O)O)c3cc(Br)ccc32)cc1 [Example 434]
< 10 | O=C(O)Cc1c(C(=O)c2ccc(-c3ccccc3Cl)cc2)[nH]c2ccc(Br)cc12 [Example 275]
< 10 | CC(C)c1ccc(Cn2c(C(=O)NCc3ccc(S(C)(=O)=O)cc3)c(CC(=O)O)c3cc(Br)ccc32)cc1 [Example 443]

same assay, conditions: Table 21, compounds made using Scheme 28; read-out: IC50 Activity

IC50 [µM] | SMILES
< 10 | CN(c1cccc(Cn2cc(CC(=O)O)c3ccccc32)c1)c1ccc(Cl)cc1Cl [Example 573]

same assay, conditions: Table 31, compounds made using Schemes 38-45; read-out: IC50 Activity

IC50 [µM] | SMILES
10 to 50 | NC(=O)c1ccc(N)cc1-c1ccc2c(CC(=O)O)cn(Cc3csc4ccc(Cl)cc34)c2c1 [Example 641]
< 10 | CNc1cc(NC)cc(-c2ccc3c(CC(=O)O)cn(Cc4csc5ccc(Cl)cc45)c3c2)c1 [Example 646]

same assay, conditions: Table 34, compounds made using Schemes 51-52; read-out: IC50 Activity

IC50 [µM] | SMILES
> 50 | COC(=O)Cc1cn(Cc2csc3ccc(Cl)cc23)c2cc(N3CCCC(OC(C)=O)C3)ccc12 (stereo not shown) [Example 697]

same assay, conditions: Table 35, compounds made using Scheme 53; read-out: IC50 Activity

IC50 [µM] | SMILES
10 to 50 | CCOC(=O)Cc1cn(Cc2cccc3sc(Cl)nc23)c2cc(-c3cc([N+](=O)[O-])cc([N+](=O)[O-])c3)ccc12 [Example 793]

same assay, conditions: Table 37, compounds made using Scheme 55; read-out: IC50 Activity

IC50 [µM] | SMILES
> 50 | O=C(O)Cc1cn(Cc2csc3ccc(Cl)cc23)c2cc(-c3ccccc3F)ccc12 [Example 758]

same assay, conditions: Table 38, compounds made using Scheme 56, Scheme 57 and Scheme 61; read-out: IC50 Activity

IC50 [µM] | SMILES
> 50 | CCOC(=O)Cc1cn(Cc2csc3c(N(C=O)CC)cc(Cl)cc23)c2cc(Br)ccc12 [Example 771]
